Measurements published in PMC10250256, “A radiohybrid theranostics ligand labeled with fluorine-18 and lutetium-177 for fibroblast activation protein-targeted imaging and radionuclide therapy” (European Journal of Nuclear Medicine and Molecular Imaging, 2023).
“And” between values parts separate entries of the source, which are not always exact repeats. Equal entries are not always repeated. “Also recorded” adds a separate entry of the source. Where two headings read alike, the source gives them in different places.

Assays:
HT-1080-FAP tumor slide = biological target: T1, HT-1080-FAP tumor slide (Homo sapiens, UniProt Q12884); test: in vitro autoradiography of HT-1080-FAP tumor slides; details: unlabeled 20 at 130 μM
T1 construct: from tissue; host or cells: slides of HT-1080-FAP xenograft tumor (transfected human fibrosarcoma cells grown subcutaneously in BALB/C-nu/nu mice)
T1 sequence (Q12884 1-760): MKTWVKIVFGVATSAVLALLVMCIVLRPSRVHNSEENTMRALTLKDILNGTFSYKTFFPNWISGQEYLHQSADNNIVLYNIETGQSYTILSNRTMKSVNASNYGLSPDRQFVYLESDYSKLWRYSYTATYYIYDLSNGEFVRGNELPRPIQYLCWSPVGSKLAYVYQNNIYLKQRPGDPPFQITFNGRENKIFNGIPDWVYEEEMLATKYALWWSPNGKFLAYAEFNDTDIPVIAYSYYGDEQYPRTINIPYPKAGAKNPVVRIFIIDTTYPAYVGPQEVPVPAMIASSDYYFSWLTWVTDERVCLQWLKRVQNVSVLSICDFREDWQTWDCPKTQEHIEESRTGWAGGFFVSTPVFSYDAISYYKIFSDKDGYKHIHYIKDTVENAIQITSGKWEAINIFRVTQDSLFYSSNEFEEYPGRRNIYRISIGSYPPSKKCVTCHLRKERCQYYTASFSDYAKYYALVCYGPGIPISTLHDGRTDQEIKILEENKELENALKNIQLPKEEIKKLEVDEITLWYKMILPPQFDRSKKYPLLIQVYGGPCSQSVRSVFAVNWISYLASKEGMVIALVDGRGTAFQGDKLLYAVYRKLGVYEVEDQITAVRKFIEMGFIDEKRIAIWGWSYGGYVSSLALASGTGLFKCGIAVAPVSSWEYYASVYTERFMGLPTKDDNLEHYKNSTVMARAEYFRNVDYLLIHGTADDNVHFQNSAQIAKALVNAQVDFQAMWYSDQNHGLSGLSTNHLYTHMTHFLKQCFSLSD
Protocol: The slides of HT-1080-FAP tumor were incubated with [^18F]21 for 1 h, exposed on a phosphoscreen, and subsequently scanned on a Beckman Coulter FLA7000IP Typhoon storage phosphorimager. Immunohistochemical staining of FAP was performed on the adjacent section.

FAP = biological target: T2, FAP (Homo sapiens, UniProt Q12884); test: competitive FAP binding assay against [^177Lu]Lu-FAPI-04 in HT-1080-FAP cells
T2 construct: expressed in transfected cells; host or cells: HT-1080 human fibrosarcoma cells (HT-1080-FAP)
T2 sequence (Q12884 1-760): T1 sequence (Q12884 1-760)

HT-1080-FAP xenograft = test: micro-PET/CT imaging, HT-1080-FAP xenograft; assay type: in vivo, BALB/C-nu/nu mice
Protocol: (§1) All animal experiments were conducted in compliance with a protocol approved by the First Affiliated Hospital of Sun Yat-sen University Institutional Animal Care and Use Committee. BALB/C-nu/nu mice (4–5-week old with body weight of 16–22 g) were purchased from GemPharmatech Co., Ltd. Mice were housed under standard conditions with temperature and light control (12-h-light/12-h-dark cycle) and had free access to water and food. For the tumor model, HT-1080-FAP or HT-1080 cells (5 × 10^6) were subcutaneously injected into the right or left flank of nude mice, respectively. As the tumor diameter reached 3–4 mm, mice were treated with radioligands. Micro-PET and SPECT imaging studies, as well as biodistribution, were conducted when the tumor diameter reached 5–10 mm.
(§2) The dynamic micro-PET/CT (Siemens Inveon) imaging studies were conducted to evaluate the pharmacokinetics. The HT-1080-FAP and HT-1080 tumor-bearing mice were injected with 3.7–7.4 MBq of [^18F]21 or [^68 Ga]Ga-FAPI-04 via tail vein. […] Dynamic PET scans were performed from 0 to 120 min with image reconstruction of every 5 min. Micro-PET imaging was reconstructed using a three-dimensional ordered-subset expectation maximum (OSEM) algorithm (Siemens, Erlangen, Germany). The images and regions of interest (ROIs) were produced using Inveon Research Workplace (Siemens, Erlangen, Germany).

[1] = in vivo stability in ICR mice, blood samples (radio-HPLC)
Protocol: (§3) [^18F]21 or [^177Lu]21 (50 μCi, 10 μL) was added to PBS (90 μL) or murine serum (90 μL) and the mixture was incubated at 37 °C for a certain time ([^18F]21: 2 h, [^177Lu]21: 8 d). The PBS mixture was injected directly into the radio-HPLC for analysis. The murine serum was precipitated with 0.1 mL of acetonitrile and centrifuged (10,000 rpm, 5 min). The supernatant was measured and analyzed by the radio-HPLC to determine the stability. For in vivo stability study, the radio tracers were injected into the tail vein of ICR mice and samples of blood were collected after a certain time post injection (pi) ([^18F]21: 4 h, [^177Lu]21: 9 h). The plasma proteins were precipitated using an equal volume of acetonitrile and centrifuged (10,000 rpm, 5 min). The RCP of radio tracer in supernatants were analyzed and quantified by radio-HPLC. The radio-HPLC method was as follows: A: 0.1% TFA in H2O, B: ACN, 0–10 min, 0–100% B. The flow rate was 1 mL/min, and the C18 column (4.6 × 150 mm, 5 μm, ZORBAX, Agilent) was used. When using HPLC to assess the stability of [^177Lu]21, the effluent was collected every 30 s due to its less radioactivity, and samples were measured by an automatic γ-counter (2480 Wizard2, Perkin Elmer). The counted samples were plotted as intensity (cpm) against fraction.

[2] = in vitro stability in PBS or murine serum (radio-HPLC); assay type: in vitro ADME
Protocol: as §3

HT-1080-FAP cells [3] = test: internalization experiments in HT-1080-FAP cells; assay type: cell-based, human; details: 10 min
Protocol: (§4) The human fibrosarcoma cell lines HT-1080 and HT-1080-FAP transferred with human FAP gene were both cultured in Dulbecco modified Eagle medium supplemented with 10% fetal bovine serum (Gibco, USA) at 37℃/5% carbon dioxide. For cell uptake experiments, HT-1080-FAP cells (~ 1 × 10^5/well) or HT-1080 (~ 1 × 10^5/well) were seeded in 24-well plates for 24–48 h and incubated at 37℃ with radiolabeled compounds (74 kBq/well) in 0.5 mL of serum-free medium for indicated times. Non-specific binding was determined by co-incubating with 100 μM FAP inhibitor UAMC1110. For competitive FAP binding assays, HT-1080-FAP cells were incubated with [^177Lu]Lu-FAPI-04 (74 kBq/well) in the presence of different concentrations (10^−3–10^4 nM) of competing non-radioactive ligands. For internalization experiments, the radiotracer-incubated cells were washed twice with PBS (pH 7.4), followed by glycine–HCl (0,05 M, pH = 2.8) solution to distinguish between cell surface–bound (acid-releasable) and internalized (acid-resistant) radioligand. For efflux experiments, cells were preincubated with [^177Lu]21 or [^177Lu]Lu-FAPI-04 for 1 h and subsequently incubated at 37 °C in a medium free of radiotracer and serum for different time periods. […] Cell lysates were collected and the radioactivity was determined using a γ-counter.

HT-1080 xenograft = test: micro-PET/CT imaging, FAP-negative HT-1080 xenograft; assay type: in vivo, BALB/C-nu/nu mice; details: dynamic PET 0-120 min
Protocol: as §1, §2

HT-1080 cells = test: cell uptake in HT-1080 (FAP negative) cells; assay type: cell-based, human
Protocol: as §4

HT-1080-FAP cells [4] = test: cell uptake in HT-1080-FAP cells; assay type: cell-based, human
Protocol: The human fibrosarcoma cell lines HT-1080 and HT-1080-FAP transferred with human FAP gene were both cultured in Dulbecco modified Eagle medium supplemented with 10% fetal bovine serum (Gibco, USA) at 37℃/5% carbon dioxide. For cell uptake experiments, HT-1080-FAP cells (~ 1 × 10^5/well) or HT-1080 (~ 1 × 10^5/well) were seeded in 24-well plates for 24–48 h and incubated at 37℃ with radiolabeled compounds (74 kBq/well) in 0.5 mL of serum-free medium for indicated times. Non-specific binding was determined by co-incubating with 100 μM FAP inhibitor UAMC1110. For competitive FAP binding assays, HT-1080-FAP cells were incubated with [^177Lu]Lu-FAPI-04 (74 kBq/well) in the presence of different concentrations (10^−3–10^4 nM) of competing non-radioactive ligands. For internalization experiments, the radiotracer-incubated cells were washed twice with PBS (pH 7.4), followed by glycine–HCl (0,05 M, pH = 2.8) solution to distinguish between cell surface–bound (acid-releasable) and internalized (acid-resistant) radioligand. For efflux experiments, cells were preincubated with [^177Lu]21 or [^177Lu]Lu-FAPI-04 for 1 h and subsequently incubated at 37 °C in a medium free of radiotracer and serum for different time periods. The medium was removed and the cells were washed twice with cold PBS (pH 7.4) and subsequently lysed with 0.5 mL of NaOH (1 M). Cell lysates were collected and the radioactivity was determined using a γ-counter.

[5] = 60 min pi, FAPI-04 25 μg/animal co-injected

Which “blocking of [^18F]21 autoradiography signal” value (HT-1080-FAP tumor slide) does the source give for CC(C)(C)[Si](F)(c1ccc(C(=O)NC[C@H](NC(=O)CCC(C(=O)O)N2CCN(CC(=O)O)CCN(CC(=O)O)CCN(CC(=O)O)CC2)C(=O)NC[C@H]2CC[C@H](C(=O)NCCCOc3ccc4nccc(C(=O)NCC(=O)N5CC(F)(F)C[C@H]5C#N)c4c3)CC2)cc1)C(C)(C)C (stereo partly drawn) [Compound 20] here?
The value was “could be blocked by unlabeled 20”.

What about the IC50 (FAP) of the same compound?
Its IC50 is 2.29 ± 1.12 nM.

For CC(C)(C)[Si]([18F])(c1ccc(C(=O)NCC(NC(=O)CCC(C(=O)O)N2CCN(CC(=O)[O-])CCN(CC(=O)[O-])CCN(CC(=O)[O-])CC2)C(=O)NCC2CCC(C(=O)NCCCOc3ccc4nccc(C(=O)NCC(=O)N5CC(F)(F)CC5C#N)c4c3)CC2)cc1)C(C)(C)C.[Lu+3] (stereo not drawn) [[^18F]21], which “tumor uptake (PET ROI), without competitor” value (HT-1080-FAP xenograft; 60 min pi) is on record?
Its value is 14.13 ± 3.19 %ID/g.

And the “tumor uptake (PET ROI), blocking with FAPI-04” value (HT-1080-FAP xenograft; [5])?
The value was 3.8 ± 0.89 %ID/g.

What about the “uptake in joints, blocking with FAPI-04” value (HT-1080-FAP xenograft; [5]) of the same compound?
Its value is “blocked significantly”.

What about the “fold higher tumor uptake than [^68 Ga]Ga-FAPI-04” value (HT-1080-FAP xenograft; 2 h pi) of the same compound?
The value was 14.9 fold.

And the “HT-1080-FAP tumor uptake (PET)” value (HT-1080-FAP xenograft; 2 h pi, dynamic PET)?
The value was 10.04 %ID/g.

What about the “metabolization in blood samples (radio-HPLC)” value ([1]; ICR mice, within 4 h pi) of the same compound?
The value was “little evidence of any metabolization”.

And the in vivo stability ([1]; as summarised in discussion)?
The in vivo stability was > 90%.

What about the “time stable in vitro” value ([2]; 37 °C, PBS or murine serum) of the same compound?
Its value is “at least 2 h”.

What about the in vitro stability ([2]; as summarised in discussion) of the same compound?
Its in vitro stability is > 90%.

What about the internalization rate (HT-1080-FAP cells [3]) of the same compound?
The internalization rate was > 80%.

What about the “FAP-negative HT-1080 tumor uptake (PET)” value (HT-1080 xenograft) of the same compound?
The value was “did not show any uptakes”.

What about the “cell uptake in FAP negative cells” value (HT-1080 cells) of the same compound?
Its value is “Almost no uptakes”.

What about the cell uptake (HT-1080-FAP cells [4]; 10 min incubation) of the same compound?
Its cell uptake is 60.18% ± 3.84.

And the cell uptake (HT-1080-FAP cells [4]; 1 h incubation)?
Its cell uptake is 86.43% ± 5.47 and 86.43% ± 5.46.

And the “cell uptake with competitor” value (HT-1080-FAP cells [4]; co-incubation with 100 μM FAP inhibitor UAMC1110)?
The value was “could be blocked by FAP inhibitor; also recorded: could be blocked by UAMC1110”.

For CC(C)(C)[Si](F)(c1ccc(C(=O)NCC(NC(=O)CCC(C(=O)O)N2CCN(CC(=O)[O-])CCN(CC(=O)[O-])CCN(CC(=O)[O-])CC2)C(=O)NCC2CCC(C(=O)NCCCOc3ccc4nccc(C(=O)NCC(=O)N5CC(F)(F)CC5C#N)c4c3)CC2)cc1)C(C)(C)C.[Lu+3] (stereo not drawn) [Compound 21], which IC50 (FAP; HT-1080-FAP cells, competition with [^177Lu]Lu-FAPI-04, read-out: IC50 (binding affinity towards FAP)) is on record?
The IC50 was 2.53 ± 1.87 nM.
